Laboratory results published in patent publication US4451485A, “Treatment of cardio-vascular diseases with 3-(2,2,2-trimethylhydrazinium) propionate dihydrate” (Institu Organicheskogo Sinteza Akademii Nauk Latviiskoi SSR, priority 1981, dated 1984).
Like-named read-outs stand apart in the source and are kept apart here.

Assays:
fruit flies = assay: Mutagenous activity on fruit flies; type: in vivo; conditions: dihydrate
[1] = Strophanthin arrhythmia in guinea pigs (450 μg/kg); type: in vivo
Procedure: As the third model of arrhythmia, there was used strophanthin arrhythmia in guinea pigs. […] Against the background of arrhythmia the test preparations were administered intravenously.

[2] = Coronary circulation and hemodynamics in narcotized cats; type: in vivo
Procedure: In acute experiments on narcotized cats with a mass of from 2.9 to 4.1 kg under artificial respiration, arterial pressure was recorded in the common carotide artery, central venous pressure in the right auricle, volume rate of blood flow in the ascending aortic arch and volume rate of the coronary blood flow. At the same time, there was recorded the content of oxyhemoglobin in venous coronary blood.

[3] = Variation of arrhythmogenic and lethal doses of CaCl2 in mice; type: in vivo, white mice
Procedure: Thus, the effect of the preparation according to the present invention has been studied relative to the variation of arrhythmogenic and lethal doses of calcium chloride. An experiment was carried out on white mice of both sexes weighing 19-28 g which were narcotized by urethane and an ECG was remetered in transthoracic lead. A 2% solution of calcium chloride was administered to the test animals into the tail vein at a constant rate (0.1 ml for 15 seconds). The average dose of calcium chloride causing the appearance of arrhythmia and heart arrest was determined. In the test groups, the studied compounds were administered 45, 60, 120, 180 and 240 minutes before the beginning of administration of calcium chloride (Table 1).
Variation of arrthythmogenic and lethal doses of CaCl2
with time after administration of the studied
pharmaceutical compositions in experiments on mice.

[4] = Vessel wall irritation and allergenic capacity; type: in vivo
[5] = Arterial pressure, respiration and responses to biogenic amines in narcotized cats; type: in vivo
Procedure: The study of the preparation according to the present invention for arterial pressure, breathing and hemodynamic effects of norepinephrine, neoepinephrine, novoepinephrine, acetylcholine and histamine was carried out in experiments on cats with a mass of 2.8 to 4.0 kg narcotized by chlorase. There were then recorded the animals' arterial pressure, respiration and ECG on a physiograph produced by Narco Bio-Systems Co.

in vivo [6] = type: in vivo
[7] = Aconitine arrhythmia in rats after repeated peroral administration; type: in vivo, white rats
Procedure: The antiarrhythmic activity was studied in experiments on white rats of both sexes with a mass of 190 to 230 g narcotized by urethane. An ECG was recorded for these animals. Into the femoral vein of the rats, aconitine was introduced at a constant rate and its arrhythmogenic and lethal doses were determined along with their variation under the protective effect of the preparation according to the present invention.

[8] = Storage stability of pharmaceutical preparations; type: physicochemical
in vivo [9] = assay: in vivo; set-up: species or system white mice; conditions: white mice
[10] = 10 mg/kg intraperitoneal, 60 minutes
[11] = 10 mg/kg intraperitoneal, 120 minutes
[12] = 10 mg/kg intraperitoneal, 180 minutes
[13] = 30 mg/kg intraperitoneal, 60 minutes
[14] = 30 mg/kg intraperitoneal, 180 minutes
[15] = 30 mg/kg intraperitoneal, 240 minutes

Structure (SMILES): C[N+](C)(C)NCCC(=O)[O-] [3-(2,2,2-trimethylhydrazinium)propionate]
- Mutagenous activity (fruit flies): does not have mutagenous activity
- ED50 ([1]; Cavia porcellus, intravenous, read-out: ED50, Strophanthin arrhythmia in guinea pigs): 7.8 ± 2.3 mg/kg
- Antiarrhythmic index LD50/ED50, Strophanthin arrhythmia in guinea pigs ([1]; guinea pig, in vivo): 568
- Duration for which Strophanthin-induced arrhythmia is cut short / ECG improved ([1]; intravenous): 5 to 20 min
- Change of arterial pressure ([2]; 2 mg/kg): 0 + -5%
- Change of central venous pressure ([2]; 2 mg/kg): 0%
- Change of heart output ([2]; 2 mg/kg): 0 + +5%
- Increase duration ([2]; 2 mg/kg): 20 min
- Volume rate, percent of increase ([2]; 2 mg/kg): 15%
- Change of central venous pressure ([2]; 10 mg/kg): -5%
- Change of heart output ([2]; 10 mg/kg): +5 - 10%
- Increase duration ([2]; 10 mg/kg): 45 min
- Volume rate, percent of increase ([2]; 10 mg/kg): 40%
- Change of arterial pressure ([2]; 25 mg/kg): -8 - +5%
- Change of central venous pressure ([2]; 25 mg/kg): -10%
- Change of heart output ([2]; 25 mg/kg): +10 - 20%
- Increase duration ([2]; 25 mg/kg): 70 min
- Volume rate, percent of increase ([2]; 25 mg/kg): 55%
- Therapeutical index higher than carbocromene ([2]; 314 vs. 130): approximately 3 times
- Saturation of the venous blood of coronary sinus with oxygen ([2]; in vivo): lastingly increase saturation of the venous blood of coronary sinus with oxygen
- Therapeutical index ([2]; in vivo): 314
- Arrhythmogenic dose of CaCl2 ([3]; 10 mg/kg intraperitoneal, 45 minutes before CaCl2, control 85): 91.5 mg/kg
- Lethal dose of CaCl2 ([3]; 10 mg/kg intraperitoneal, 45 minutes before CaCl2, control 100.9): 101.7 mg/kg
- Arrhythmogenic dose of CaCl2 [3, 10]: 103.4 mg/kg
- Lethal dose of CaCl2 [3, 10]: 122.2 mg/kg
- Arrhythmogenic dose of CaCl2 [3, 11]: 111.9 mg/kg
- Lethal dose of CaCl2 [3, 11]: 130 mg/kg
- Arrhythmogenic dose of CaCl2 [3, 12]: 110.1 mg/kg
- Lethal dose of CaCl2 [3, 12]: 116 mg/kg
- Arrhythmogenic dose of CaCl2 [3, 13]: 106.7 mg/kg
- Lethal dose of CaCl2 [3, 13]: 122.8 mg/kg
- Arrhythmogenic dose of CaCl2 [3, 14]: 117.5 mg/kg
- Lethal dose of CaCl2 [3, 14]: 130.2 mg/kg
- Arrhythmogenic dose of CaCl2 [3, 15]: 121.9 mg/kg
- Lethal dose of CaCl2 [3, 15]: 128 mg/kg
- Effect on arrhythmogenic and lethal doses of calcium chloride ([3]; single intraperitoneal administration): increases the arrhythmogenic and lethal doses of calcium chloride
- Irritation of vessel walls ([4]; intravenous): does not cause irritation of vessel walls
- Allergic responses ([4]; intravenous and peroral, single or up to 30 days): nor does it cause allergic responses
- Change in arterial pressure, pulse frequency and respiration ([5]; 0.5 to 2.0 mg/kg intravenous): did not result in any essential change in arterial pressure, pulse frequency and respiration
- Level of responses to biogenic amines ([5]; 0.5 to 2.0 mg/kg intravenous): did not change changed the level of responses to biogenic amines
- Change in response to acetyl choline ([5]; 15-25 mg/kg): 10-15%
- Change in response to neoepinephrine ([5]; 15-25 mg/kg): 5-10%
- Increase of the response to histamine ([5]; 15-25 mg/kg): 5-10%
- Short-time reduction of arterial pressure ([5]; 15-25 mg/kg): 5-20 mm Hg
- Duration of increase of arterial pressure ([5]; 15-25 mg/kg, some cases): 5 to 12 min
- Increase of arterial pressure vs initial value ([5]; 15-25 mg/kg, some cases): 5-10 mm Hg
- Blood pressure or response to biogenic amines ([5]; further increase of dose): did not cause changes in blood pressure or response to the administration of biogenic amines
- LD50 (in vivo [6]; mouse, in vivo, ip, read-out: Acute toxicity, LD50): 7850 mg/kg
- Toxicity lower than that of carbocromene (in vivo [6]; vs carbocromene): 12 times
- Aconitine dose variation, arrhythmogenic ([7]; 25 mg/kg perorally, 1 week): 38.7%
- Aconitine dose variation, lethal ([7]; 25 mg/kg perorally, 1 week): 27.6%
- Aconitine dose variation, arrhythmogenic ([7]; 25 mg/kg perorally, 2 weeks): 42.26%
- Aconitine dose variation, lethal ([7]; 25 mg/kg perorally, 2 weeks): 24.7%
- Aconitine dose variation, arrhythmogenic ([7]; 100 mg/kg perorally, 1 week): 55.6%
- Aconitine dose variation, lethal ([7]; 100 mg/kg perorally, 1 week): 16.2%
- Aconitine dose variation, arrhythmogenic ([7]; 100 mg/kg perorally, 2 weeks): 34.6%
- Aconitine dose variation, lethal ([7]; 100 mg/kg perorally, 2 weeks): 9.7%
- Protective effect against aconitine ([7]; peroral): pronounced protective effect
- Stability in storage ([8]; +5° C.): stable in storage at a temperature of +5 °C for at least two years
- Stability of pharmaceutical forms for peroral administration ([8]; room temperature): stable for two years at room temperature
- LD50 (in vivo [9]; mouse, in vivo, intravenous (Table 2)): 4430 mg/kg
- Acute toxicity, LD50 (in vivo [9]; intravenous (Table 5)): 4,430 mg/kg
